How the values were obtained:
[1] = test system: binding site 2 of the sodium channel; experiment: Binding investigations at sodium channel binding site 2 (BTX binding); settings: 10 μM; rat cerebrocortex synaptosomes; [3H]-Batrachotoxinin A20 α-benzoate 10 nM; 37° C., 120 min
Method: Binding Investigations at Sodium Channel Binding Site 2
Binding site 2 of the sodium channel is the so-called batrachotoxin (BTX) binding site. [^3H]-Batrachotoxinin A20 α-benzoate (10 nM in the batch) was used as ligand. These ion channel particles (synaptosomes) were enriched from rat cerebrocortex after Gray and Whittaker (E. G. Gray and V. P. Whittaker (1962) J. Anat. 76, 79-88). The radioactivity measured in the presence of veratridine (0.3 mM in the batch) is defined as non-specific binding.
The assay conditions were as published by Pauwels, Leysen and Laduron (P. J. Pauwels, J. E. Leysen and P. M. Laduron (1986) Eur. J. Pharmacol. 124, 291-298). Incubation at 37° C. for 120 min.

[2] = target: T1, NA transporter (Rattus norvegicus, UniProt Q63380); experiment: Noradrenaline reuptake inhibition (NA uptake inhibition) in synaptosomes; assay type: biochemical; settings: synaptosomes from hypothalamus of male rat brains
T1 construct: synaptosomes were freshly isolated from rat brain regions; from tissue; host or cells: rat hypothalamus synaptosomes (P2 fraction)
Method: In order to be able to carry out these in vitro studies, synaptosomes were freshly isolated from rat brain regions. A so-called “P2” fraction was used, which was prepared according to the instructions given by Gray and Whittaker (E. G. Gray and V. P. Whittaker (1962) J. Anat. 76, 79-88).

T1 sequence (Q63380 1-617): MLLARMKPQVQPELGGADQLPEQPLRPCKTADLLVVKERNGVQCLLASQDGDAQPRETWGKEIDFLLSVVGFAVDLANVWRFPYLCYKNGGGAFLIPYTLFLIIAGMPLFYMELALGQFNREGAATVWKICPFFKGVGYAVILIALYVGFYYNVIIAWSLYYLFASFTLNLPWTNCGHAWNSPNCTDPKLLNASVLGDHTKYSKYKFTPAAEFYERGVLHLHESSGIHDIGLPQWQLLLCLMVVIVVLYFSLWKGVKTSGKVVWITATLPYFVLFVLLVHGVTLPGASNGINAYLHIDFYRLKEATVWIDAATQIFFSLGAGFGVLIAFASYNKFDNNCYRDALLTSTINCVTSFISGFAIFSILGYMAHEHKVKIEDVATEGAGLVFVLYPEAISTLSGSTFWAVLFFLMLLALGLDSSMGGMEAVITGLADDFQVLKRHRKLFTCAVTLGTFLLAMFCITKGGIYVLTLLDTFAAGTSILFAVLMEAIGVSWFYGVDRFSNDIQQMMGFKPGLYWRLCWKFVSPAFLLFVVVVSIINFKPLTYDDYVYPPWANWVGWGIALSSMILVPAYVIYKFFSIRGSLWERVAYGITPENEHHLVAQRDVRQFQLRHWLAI

| SMILES | BTX binding at 10 μM [%] inhibition [1] [%] | inhibition at 10 µM [2] [%] |
| --- | --- | --- |
| CN1CCN(CC2CCCCCC2(O)c2ccc(Cl)cc2)CC1 (stereo not drawn) [1-(4-Chloro-phenyl)-2-(4-methyl-piperazin-1-ylmethyl)-cycloheptanol] | 69 | 70 |
| CCC(O)(CCc1ccccc1)C(C)CN1CCN(C)CC1 (stereo not drawn) [3-Ethyl-2-methyl-1-(4-methyl-piperazin-1-yl)-5-phenyl-pentan-3-ol] | 74 | 88 |
| Cc1cc(C2(O)CCCCC2CN2CCN(C)CC2)ccc1F (stereo not drawn) [1-(4-Fluoro-3-methyl-phenyl)-2-(4-methyl-piperazin-1-ylmethyl)-cyclohexanol] | 60 | 65 |
| Cc1ccc(C2(O)CCCCC2CN2CCN(C)CC2)cc1 (stereo not drawn) [2-(4-Methyl-piperazin-1-ylmethyl)-1-p-tolyl-cyclohexanol] | 53 | 75 |
| CN1CCN(CC2CCCCC2(O)CCc2ccccc2)CC1 (stereo not drawn) [2-(4-Methyl-piperazin-1-ylmethyl)-1-phenethyl-cyclohexanol] | 65 | 71 |
| Cc1cc(C2(O)CCCCCC2CN2CCN(C)CC2)ccc1F (stereo not drawn) [1-(4-Fluoro-3-methyl-phenyl)-2-(4-methyl-piperazin-1-ylmethyl)-cycloheptanol] | 69 | 66 |
| CN1CCN(CC2CCCCCCC2(O)CCc2ccccc2)CC1 (stereo not drawn) [2-(4-Methyl-piperazin-1-ylmethyl)-1-phenethyl-cyclooctanol] | 78 | 61 |
| CCC(O)(c1ccc(C)cc1)C(C)CN1CCN(c2cccc(Cl)c2)CC1 (stereo not drawn) [1-[4-(3-Chloro-phenyl)-piperazin-1-yl]-2-methyl-3-p-tolyl-pentan-3-ol] | – | 41 |
| CCC(O)(c1ccc(C(C)(C)C)cc1)C(C)CN1CCN(c2cccc(Cl)c2)CC1 (stereo not drawn) [3-(4-tert-Butyl-phenyl)-1-[4-(3-chloro-phenyl)-piperazin-1-yl]-2-methyl-pentan-3-ol] | – | 62 |
| CCC(O)(Cc1cccc(C)c1)C(C)CN1CCN(c2cccc(Cl)c2)CC1 (stereo not drawn) [1-[4-(3-Chloro-phenyl)-piperazin-1-yl]-2-methyl-3-(3-methyl-benzyl)-pentan-3-ol] | – | 55 |
| CCC(O)(Cc1ccccc1)C(C)CN1CCN(c2cccc(Cl)c2)CC1 (stereo not drawn) [3-Benzyl-1-[4-(3-chloro-phenyl)-piperazin-1-yl]-2-methyl-pentan-3-ol] | – | 55 |
| CN1CCN(CC2CCCCCC2(O)c2ccccc2)CC1 (stereo not drawn) [2-(4-Methyl-piperazin-1-ylmethyl)-1-phenyl-cycloheptanol] | 63 | 50 |
| CCC(O)(c1cccc(F)c1)C(C)CN1CCN(c2cccc(Cl)c2)CC1 (stereo not drawn) [1-[4-(3-Chloro-phenyl)-piperazin-1-yl]-3-(3-fluoro-phenyl)-2-methyl-pentan-3-ol] | – | 53 |
| CCC(O)(c1ccccc1)C(C)CN1CCN(c2cccc(Cl)c2)CC1 (stereo not drawn) [1-[4-(3-Chloro-phenyl)-piperazin-1-yl]-2-methyl-3-phenyl-pentan-3-ol] | – | 61 |
| CCC(O)(C#Cc1ccccc1)C(C)CN1CCN(c2cccc(Cl)c2)CC1 (stereo not drawn) [5-[4-(3-Chloro-phenyl)-piperazin-1-yl]-3-ethyl-4-methyl-1-phenyl-pent-1-yn-3-ol] | – | 46 |
| CCC(O)(c1ccc(Cl)cc1)C(C)CN1CCN(c2cccc(Cl)c2)CC1 (stereo not drawn) [3-(4-Chloro-phenyl)-1-[4-(3-chloro-phenyl)-piperazin-1-yl]-2-methyl-pentan-3-ol] | – | 54 |
| CCC(O)(c1ccc(F)cc1)C(C)CN1CCN(c2cccc(Cl)c2)CC1 (stereo not drawn) [1-[4-(3-Chloro-phenyl)-piperazin-1-yl]-3-(4-fluoro-phenyl)-2-methyl-pentan-3-ol] | – | 53 |
| Cc1cccc(C2(O)CCCCC2CN2CCN(C)CC2)c1 (stereo not drawn) [2-(4-Methyl-piperazin-1-ylmethyl)-1-m-tolyl-cyclohexanol] | 58 | 44 |
| CCC(O)(Cc1cccc(F)c1)C(C)CN1CCN(c2cccc(Cl)c2)CC1 (stereo not drawn) [1-[4-(3-Chloro-phenyl)-piperazin-1-yl]-3-(3-fluoro-benzyl)-2-methyl-pentan-3-ol] | – | 50 |
| CCC(O)(CCCc1ccccc1)C(C)CN1CCN(c2cccc(Cl)c2)CC1 (stereo not drawn) [1-[4-(3-Chloro-phenyl)-piperazin-1-yl]-3-ethyl-2-methyl-6-phenyl-hexan-3-ol] | – | 55 |
| CN1CCN(CC2CCCCC2(O)c2ccc(F)cc2)CC1 (stereo not drawn) [1-(4-Fluoro-phenyl)-2-(4-methyl-piperazin-1-ylmethyl)-cyclohexanol] | – | 51 |
